Source: patent US20140094462A1, “SONIC HEDGEHOG MODULATORS” (priority 2009, published 2014)
Where two headings read alike, the source gives them in different places.

Experiments:
Gli1 = assay: Primary keratinocyte cell culture, reduction in Gli mRNA; format: cell-based; details: primary human keratinocytes
Method: To study the potency of the compounds of the invention in cells, select compounds of the invention were conducted with keratinocytes and the reduction in Gli mRNA was measured. Culturing of primary human keratinocytes was previously described (Nguyen, B. C., et al., Genes & Dev. 20:1028-1042 (2006)). The full thickness skin model, EpiDermFT System (MatTek, Ashland), consisted of normal, human-derived epidermal keratinocytes and normal, human-derived dermal fibroblasts which have been cultured to form a multilayered, highly differentiated model of the human dermis and epidermis. […] Gene expression is compared by quantifying mRNA levels by real time RT-PCR. For this, total RNA preparations […] are used in a reverse transcriptase reaction with a mix of oligonucleotide dT and random hexamer primers, followed by real time PCR with gene-specific primers (Gli1: Qiagen Quantitect PrimerAssay QT00060501; Gli2: Qiagen Quantitect PrimerAssay QT00018648), using an […] real time detection system (Bio-Rad) according to the manufacturer's recommendation, with SYBR Green (Bio-Rad) for detection.

C3H10T1/2 = assay: Induction of osteogenic differentiation (modulation of osteoblast differentiation); details: Mus musculus, C3H 10T1/2, read-out: IC50 (nM) C3H10T1/2
Description: Using assays previously described in Dwyer et al., J. Biol. Chem. 282, (2007), 8959-68 and Nakamura et al., Biochm. […] Res. Comm., 237 (1997) 465-9, select compounds of the invention were screened for their ability to modulate osteoblast differentiation.

ShhN protein = target: T1, ShhN protein (Homo sapiens, UniProt Q15465); assay: Surface Plasmon Resonance (SPR) protein binding assay on immobilized ShhN; details: SPR, Biacore T100, ShhN immobilized on CM4 chip, 25° C., compound 0.78 μM-25 μM; read-out: KD
T1 construct: auto-cleavage of full length Shh into an active 20 kD N-terminal fragment (ShhN); purchased R&D Systems
Summary of the method: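 Binding to immobilized ShhN measured on a Biacore T100 at 25°C. Signals referenced against underivatized control surfaces, with zero-concentration blank cycles included. Solvent correction applied.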

[1] = rcm bond, 12-membered ring
[2] = rcm bond, toluene

T1 sequence (Q15465 24-197 limits assumed, species assumed): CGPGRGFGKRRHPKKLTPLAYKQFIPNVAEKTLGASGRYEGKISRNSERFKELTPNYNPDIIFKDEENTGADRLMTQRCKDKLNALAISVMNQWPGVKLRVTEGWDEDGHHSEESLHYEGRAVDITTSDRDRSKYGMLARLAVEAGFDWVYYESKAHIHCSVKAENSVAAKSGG

In the case of `O=C(C[C@@H]1C/C=C/CCC(=O)O[C@H](c2ccccc2)CNC1=O)N[C@@H]1CCCc2ccccc21` [Example CR, 2-((2R,6S,E)-5,12-dioxo-2-phenyl-1-oxa-4-azacyclododec-8-en-6-yl)-N—((R)-1,2,3,4-tetrahydronaphthalen-1-yl)acetamide], the IC50 (Gli1) is reported as < 100 nM, the IC50 (C3H10T1/2) is reported as < 100 nM and the Kd (ShhN protein) is reported as < 100 nM.

`C[C@@H]1C/C=C/CCC(=O)N[C@H](c2ccccc2)CC(=O)O1` gave a ring closure, isolated yield ([1]; from C=CCCC(=O)N[C@H](CC(=O)O[C@@H](C)CC=C)c1ccccc1, Grubbs II (10 mol%), toluene, 10.0 mM) of 79%.

For `O=C(C[C@@H]1C[C@H](O)[C@@H](O)CCC(=O)N[C@H](c2ccccc2)COC1=O)NCc1ccc(Cl)cc1` [Example E, N-(4-chlorobenzyl)-2-((3R,8S,9S,11S)-8,9-dihydroxy-5,12-dioxo-3-phenyl-1-oxa-4-azacyclododecan-11-yl)acetamide], the IC50 (Gli1) was < 100 nM, the IC50 (C3H10T1/2) was 1000 to 100000 nM and the Kd (ShhN protein) was < 100 nM.

With `C[C@@H]1C/C=C/CCNC(=O)[C@H](c2ccccc2)COC1=O` the ring closure, isolated yield ([1]; from C=CCCNC(=O)[C@@H](COC(=O)[C@H](C)CC=C)c1ccccc1, Grubbs II (10 mol%), toluene, 10.0 mM, 2 steps) was 63%.

Molecule `CC(C)(C)OC(=O)N[C@@H]1C/C=C/CCC(=O)N[C@H](c2ccc(F)cc2)COC1=O` has a ring closure, isolated yield ([1]; from C=CCCC(=O)N[C@@H](COC(=O)[C@@H](CC=C)NC(=O)OC(C)(C)C)c1ccc(F)cc1, Grubbs II (10 mol%), DCM, 9.9 mM) of 85%.

With `O=C1CC/C=C/C[C@@H](CC(=O)N2CCOCC2)C(=O)NC[C@@H](c2ccccc2)O1` [Example DK, (2R,6S,E)-6-(2-morpholino-2-oxoethyl)-2-phenyl-1-oxa-4-azacyclododec-8-ene-5,12-dione] the IC50 (Gli1) was 100 to 1000 nM, the IC50 (C3H10T1/2) was 1000 to 100000 nM and the Kd (ShhN protein) was < 100 nM.

For `O=C(C[C@@H]1C/C=C/CCC(=O)O[C@H](c2ccccc2)CNC1=O)NCCCC(F)(F)F` [Example CT, 2-((2R,6S,E)-5,12-dioxo-2-phenyl-1-oxa-4-azacyclododec-8-en-6-yl)-N-(4,4,4-trifluorobutyl)acetamide], the IC50 (Gli1) was < 100 nM, the IC50 (C3H10T1/2) was < 100 nM and the Kd (ShhN protein) was < 100 nM.

With `CC(=O)N[C@H]1C/C=C/C[C@@H](CC(=O)NCc2ccc(Cl)cc2)C(=O)NC[C@@H](c2ccccc2)OC1=O` [Example DJ, 2-((2R,6S,11S,E)-11-acetamido-5,12-dioxo-2-phenyl-1-oxa-4-azacyclododec-8-en-6-yl)-N-(4-chlorobenzyl)acetamide] the IC50 (Gli1) was > 100000 nM, the IC50 (C3H10T1/2) was 100 to 1000 nM and the Kd (ShhN protein) was < 100 nM.

In the case of `C[C@@H]1C/C=C/CCC(=O)N[C@H](c2ccccc2)COC1=O` [Example C, (3R,11R,E)-11-methyl-3-phenyl-1-oxa-4-azacyclododec-8-ene-5,12-dione], the ring closure, yield of all isomers ([2]; from C=CCCC(=O)N[C@@H](COC(=O)[C@H](C)CC=C)c1ccccc1, Grubbs II, 20.0 mM, 25.0 °C, 12.0 h) is reported as 37%, the IC50 (Gli1) is reported as < 100 nM and the IC50 (C3H10T1/2) is reported as 100 to 1000 nM. For the same molecule, the Kd (ShhN protein) was < 100 nM.

For `CN1CCC(CNC(=O)C[C@@H]2C/C=C/CCC(=O)O[C@H](c3ccccc3)CNC2=O)CC1` [Example DN, 2-((2R,6S,E)-5,12-dioxo-2-phenyl-1-oxa-4-azacyclododec-8-en-6-yl)-N-((1-methylpiperidin-4-yl)methyl)acetamide], the IC50 (Gli1) was 100 to 1000 nM, the IC50 (C3H10T1/2) was 1000 to 100000 nM and the Kd (ShhN protein) was < 100 nM.

In the case of `CC(=O)N[C@H]1C/C=C/C[C@@H](CC(=O)NCc2ccc(Cl)cc2)C(=O)N(C)[C@@H](C)[C@@H](c2ccccc2)OC1=O` [Example DM, 2-((2R,3S,6S,11S,E)-11-acetamido-3,4-dimethyl-5,12-dioxo-2-phenyl-1-oxa-4-azacyclododec-8-en-6-yl)-N-(4-chlorobenzyl)acetamide], the IC50 (Gli1) is reported as 100 to 1000 nM, the IC50 (C3H10T1/2) is reported as 1000 to 100000 nM and the Kd (ShhN protein) is reported as < 100 nM.

In the case of `CCO[Si](OCC)(OCC)C1=CCC(C)(C)C(=O)OC[C@@H](c2ccccc2)NC(=O)CC1`, the ring closure, yield of all isomers ([2]; from C=CCC(C)(C)C(=O)OC[C@H](NC(=O)CCC(=C)[Si](OCC)(OCC)OCC)c1ccccc1) is reported as 6% and the ring closure, isolated yield ([1]; from C=CCC(C)(C)C(=O)OC[C@H](NC(=O)CCC(=C)[Si](OCC)(OCC)OCC)c1ccccc1, general RCM procedure (catalyst not printed here), toluene) is reported as 6%.

For `CC1(C)O[C@H]2CCC(=O)O[C@H](c3ccccc3)CNC(=O)[C@H](CC(=O)NCc3ccc(Cl)cc3)C[C@@H]2O1` [Example I, N-(4-chlorobenzyl)-2-((3aS,8R,12S,13aS)-2,2-dimethyl-6,11-dioxo-8-phenyldecahydro-3aH-[1,3]dioxolo[4,5-h][1,4]oxaazacyclododecin-12-yl)acetamide], the IC50 (Gli1) was < 100 nM, the IC50 (C3H10T1/2) was 1000 to 100000 nM and the Kd (ShhN protein) was < 100 nM.

With `C[C@H]1[C@@H](c2ccccc2)OC(=O)CC/C=C/C[C@@H](CC(=O)NCc2ccc(Cl)cc2)C(=O)N1C` [Example CZ, N-(4-chlorobenzyl)-2-((2R,3S,6S,E)-3,4-dimethyl-5,12-dioxo-2-phenyl-1-oxa-4-azacyclododec-8-en-6-yl)acetamide] the IC50 (Gli1) was 100 to 1000 nM, the IC50 (C3H10T1/2) was 100 to 1000 nM and the Kd (ShhN protein) was < 100 nM.

In the case of `C[C@H]1C/C=C/CCCN[C@H](c2ccccc2)COC1=O`, the ring closure, yield of all isomers ([2]; from C=CCCCN[C@@H](COC(=O)[C@@H](C)CC=C)c1ccccc1, 3 steps) is reported as 41% and the ring closure, isolated yield ([1]; from C=CCCCN[C@@H](COC(=O)C(C)CC=C)c1ccccc1, general RCM procedure (catalyst not printed here), toluene, 3 steps) is reported as 41%.

With `N[C@@H]1C/C=C/C[C@@H](CC(=O)NCc2ccc(Cl)cc2)C(=O)NC[C@@H](c2ccccc2)OC1=O` [Example CV, 2-((2R,6S,11R,E)-11-amino-5,12-dioxo-2-phenyl-1-oxa-4-azacyclododec-8-en-6-yl)-N-(4-chlorobenzyl)acetamide] the IC50 (Gli1) was < 100 nM, the IC50 (C3H10T1/2) was 100 to 1000 nM and the Kd (ShhN protein) was < 100 nM.

With `O=C(C[C@@H]1C/C=C/CCC(=O)N[C@@H](c2ccccc2)COC1=O)NCc1ccc(Cl)cc1` [Example DA, N-(4-chlorobenzyl)-2-((3S,11S,E)-5,12-dioxo-3-phenyl-1-oxa-4-azacyclododec-8-en-11-yl)acetamide] the IC50 (Gli1) was < 100 nM, the IC50 (C3H10T1/2) was 100 to 1000 nM and the Kd (ShhN protein) was < 100 nM.

In the case of `O=C1CC/C=C/C[C@@H](CC(=O)N2CCCCC2)C(=O)NC[C@@H](c2ccccc2)O1` [Example CQ, (2R,6S,E)-6-(2-oxo-2-(piperidin-1-yl)ethyl)-2-phenyl-1-oxa-4-azacyclododec-8-ene-5,12-dione], the IC50 (Gli1) is reported as < 100 nM, the IC50 (C3H10T1/2) is reported as < 100 nM and the Kd (ShhN protein) is reported as 100 to 1000 nM.

With `CC(C)(C)OC(=O)C[C@@H]1C/C=C/CCC(=O)O[C@H](c2ccccc2)CNC1=O` the ring closure, yield of all isomers ([2]; from C=CCCC(=O)O[C@@H](CNC(=O)[C@@H](CC=C)CC(=O)OC(C)(C)C)c1ccccc1, Grubbs 2nd Generation catalyst, 10.0 mM, 65.0 °C, 7.0 h) was 73% and the ring closure, isolated yield ([1]; from C=CCCC(=O)O[C@@H](CNC(=O)[C@@H](CC=C)CC(=O)OC(C)(C)C)c1ccccc1, Grubbs II (10 mol%), toluene, 10.0 mM, 65.0 °C, 7.0 h) was 73%.

Molecule `O=C1CC/C=C/C[C@@H](CC(=O)N2CCN(c3ccccc3)CC2)C(=O)NC[C@@H](c2ccccc2)O1` [Example ES, (2R,6S,E)-6-(2-oxo-2-(4-phenylpiperazin-1-yl)ethyl)-2-phenyl-1-oxa-4-azacyclododec-8-ene-5,12-dione] has an IC50 (Gli1) of 100 to 1000 nM and a Kd (ShhN protein) of 100 to 1000 nM.
